The subject of this assay is HeLa. Put plainly: Alamar Blue viability assay. Type of assay: cell-based, human. Particulars: for Viability of HeLa cells (Alamar Blue): 96 hours exposure, attached cells. The procedure:
FIG. 5. (A) Viability of HeLa cell cultures mock-exposed (−) or exposed to the indicated concentrations of compounds 001, 058 or 115. (B) Viability of MM.1S cells mock-exposed (−) or exposed to the indicated concentrations of compound 115. Viability was assayed after 96 hours of exposure using an Alamar Blue assay.
FIG. 6. (A) HeLa cell cultures were mock-exposed (−) or exposed to the indicated concentrations of compound 115 for 24 (left panel) or 96 (right panel) hours. Cell viability of total cultures, floating cells and attached cells was assayed using an Alamar Blue assay. (B) HeLa cell cultures were mock-exposed (−) or exposed to the indicated concentrations of compound 115 for 15-96 hours. Trypan Blue dye exclusion was employed to determine numbers of live cells (left panel) and relative levels of necrotic cells (right panel). (C) HeLa cell cultures were mock-exposed (−) or exposed to the indicated concentrations of compound 115 for 6 and 24 h. Shown are relative levels of early apoptotic cells (annexin-positive, 7 aminoactinomycin D-negative). (D) Flow cytometric analysis of DNA of HeLa cell cultures mock-exposed (−) or exposed to the indicated concentrations of compound 115 for 6, 15 and 24 hours. Relative levels of apoptotic cells are indicated.
Cultures of HeLa cells were exposed for 96 hours to different concentrations of IHSF 001, 058 and 115, and viability was assessed using an Alamar Blue assay. It is noted that this standard assay examines attached cells only. This subject will be discussed in more detail below. […] The relative cytotoxicity of the compounds appears to parallel their respective activities as inhibitors of HSF1 function (inhibition of RLuc expression in Z74 cells). We next examined the viability of different human cancer cell lines subsequent to a 96-hour exposure to compound 115 (Table 3). HSF1 was reported as being required for optimal p21 expression and for p53-mediated cell cycle arrest in response to genotoxins. Logan, I. R. et al. (2009) Nucleic Acids Res. 37: 2962-2971. […] Cell lines of different p53 status were included in the experiments in order to find out whether sensitivity to IHSF 115 was related to p53 status. […] No effect of p53 status could be discovered. It is noted that a number of additional HSF inhibitors of the present disclosure were tested and found to effectively reduce the viability of human cancer cells.
Further studies were aimed at finding out whether IHSF-exposed cancer cells were only growth-arrested or were actually killed and, if they were killed, by what mechanism. In one type of experiment, parallel sets of HeLa cell cultures were exposed for either 24 or 96 hours to different concentrations of IHSF 115. The first set was assayed for viability by the Alamar Blue assay without prior removal of floating cells. Attached and floating cells were assayed separately in the second set; floating cells were subsequently re-plated and incubated for 72 hours without compound. […] The viability signal (in whole cultures and, more dramatically, when only attached cells were analyzed) decreased as a function of IHSF concentration. Most floating cells were incapable of re-attaching in the absence of compound (not shown); apparently, these cells had died. More profound effects were observed after 96 hours (right panel) than after 24 hours of exposure (left panel). […] Stained (necrotic) and unstained (live) cells were counted (FIG. 6B). […]
(Alamar Blue is a resazurin reagent that responds to reducing activity.)

The structures appear in SMILES notation. pEC50: −log10 of the molar value.

For `CCOC(=O)/C=C/C(=O)Nc1nccs1` [IHSF 001, (E)-ethyl 4-oxo-4-(thiazol-2-ylamino)but-2-enoate], the “Viability of HeLa cells (Alamar Blue)” value (different concentrations) was “decreased in a dose-dependent fashion”.

With `CCOC(=O)/C=C/C(=O)Nc1ncc(-c2cccnc2)s1` [IHSF 058, (E)-3-(5-Pyridm-3-yl-thiazol-2-ylcarbamoyl)-acrylic acid ethyl ester], the “Viability of HeLa cells (Alamar Blue)” value (different concentrations) is reported as “decreased in a dose-dependent fashion”.

A word on the pEC50: it is the negative decadic logarithm of the EC50, by convention in mol/L. A low value points to a large EC50. Regarding `CN(C(=O)/C=C/C1=NCCCO1)c1ncc(-c2cccnc2)s1` [IHSF 115, (E)-3-(5,6-Dihydro-4H-[1,3]oxazin-2-yl)-N-methyl-N-(5-pyridin-3-yl-thiazol-2-yl)-acrylamide], under “24 or 96 hours exposure, different concentrations”, the “killing of HeLa cells (Alamar Blue, total, floating and attached cells)” value is “killed by IHSF 115 in a concentration- and exposure time-dependent fashion”. Besides, under “different concentrations”, the “Viability of HeLa cells (Alamar Blue)” value is “decreased in a dose-dependent fashion”. Under “Homo sapiens, HeLa, Cervical, P53 Wt, 96-hour exposure”, the pEC50 was 5.21.

For the origin of these results see US11597708B2, “Inhibitors of heat shock factors and uses thereof” (HSF Pharmaceuticals SA, priority 2016, dated 2023).
